Laboratory results taken from patent publication US20220256900A1, “COMPOSITIONS WITH SUGAR LIKE CHARACTERISTICS” (CORN PRODUCTS DEVELOPMENT, INC., priority 2019, published 2022).

Key:
Format in all cases: in vivo
[1] = tested on: trained descriptive analysis (DA) panel; assay: Concentration-response testing of the Test Compound vs sucrose, sweetness intensity on gLMS; settings: in water at room temperature; tested range 0% to 0.2% (2000 ppm)
Procedure: A concentration-response (CR) testing of the Test Compound was conducted using a trained descriptive analysis (DA) panel to compare the Test Compound in an aqueous matrix to sucrose. The concentration-response curve for the natural sweetener (Test Compound) was determined using a general Labeled Magnitude Scale (gLMS). Trained panelists were asked to rate the sweetness intensity of eight (8) concentrations of sweetener and sucrose, in water at room temperature (RT). […] This relationship was established using a dose response model (Equation 2: R=Rmin+(C^Hillslope)*(Rmax−Rmin)/(C^HillSlope+EC50^HillSlope) for Sucrose and the Test Compound Sweetener. Study design and Test Samples: A trained panel of 10-12 descriptive analysis panelists participated in the experiment. All participants underwent training, during which panelists familiarized themselves with rating the sweetness intensity on the gLMS scale. The scale is depicted in FIG. 4 as a vertical line marked with anchors describing different intensities. The panelists were instructed to rate the perceived sweetness intensity for each sample by marking a line on the scale. The order of samples was randomized and blinded using the William's Latin Square design. The order of sample presentation within each sweetener set was also randomized. All samples were evaluated using a sip and spit protocol.

[2] = tested on: trained descriptive analysis (DA) panel; assay: Sensory evaluation of Test Compound/Reb M blends (sweetness quality and off-taste profile), 15 cm scale; settings: RO water, samples target 10 Brix sucrose, 1000 ppm Test Comp, 600 ppm Reb M; for Bitter Aftertaste (1 min) / Sweet Aftertaste (1 min): 1 minute after expectoration; for Bitter Aftertaste (3 min) / Sweet Aftertaste (3 min): 3 minutes after expectoration; for Astringent / Bitter / Licorice / Metallic / Sweet AT (Appearance Time) / Sweet Intensity (ns) / Thickness: room temperature, LSD means
Procedure: Sensory results for sweetener blends with Reb M were evaluated using a trained descriptive analysis (DA) panel. Five blend samples were tested in this panel; wherein each sample was designed to target a sweetness equivalence of 10 Brix Sucrose.
Study Designs and Test Samples. A validated and trained panel of 10-12 descriptive analysis panelists participated in these experiments.
During the test sessions, panelists rated the intensity of each attribute on a 15 cm scale. Five test samples were tested for each attribute, in triplicate. The order of samples was randomized and blinded using the Williams Latin Square design. All samples were prepared in reverse osmosis (RO) water and served at room temperature and evaluated using a sip and spit protocol.
Each of the five samples were evaluated for sensory attributes corresponding to sweetness quality and off-taste profile. Attributes of sweetness intensity, sweetness appearance time, sweetness aftertaste and thickness were evaluated as part of the sweetness quality profiling. Specifically, for sweetness aftertaste two time points were evaluated; 1 minute and 3 minutes, after expectoration. The sweetness aftertaste corresponds to the sweetness linger characteristic, often common to high potency sweeteners.
Off-Taste Profile. All 5 blend samples were also evaluated for attributes of bitter, astringent, metallic, licorice, and bitter aftertaste, as part of the off-taste profiling. Specifically, for bitter aftertaste two time points were evaluated; 1 minute and 3 minutes, after expectoration. When referring to ‘bitter’ tastes herein it refers to a sample that confers a bitter taste, activates or that can be detected by a bitter taste receptor and/or confers the perception of a bitter taste in a subject. Table 5 lists the LSD Means Differences for the off-taste evaluation across the 5 blend samples with Reb M.

3 tasters [3] = assay: Taste profile of Test Compound Na Salt with HFCS-55 in pH 3.0 buffer (Example 4); settings: Test Compound (Na Salt) 1100 ppm
Procedure: (§1) The taste profile of the Test Compound Sweetener (Na Salt of the compound) was evaluated in combination with sweeteners—namely High Fructose Corn Syrup (HFCS-55). These samples were evaluated in pH 3.0 buffer by 3 tasters. Samples were tasted in a blinded fashion using sip and spit methodology. The focus of the evaluation was to obtain an indication of the sweetness profile of the blends when compared to sucrose. Materials and Methods. Potassium sorbate was dissolved into water. The remaining ingredients were added and mixed until fully dissolved. The pH of each sample was recorded and the samples tasted using sip and spit method. The samples were then compared to each other.

3 tasters [4] = assay: Taste profile of Test Compound Na Salt with Reb A in pH 3.0 buffer (Example 5)
Procedure: as §1, with “Rebaudioside A (Reb A). Enliten® 300000 (Reb A 95) was used in combination with the Test Compound.” for “High Fructose Corn Syrup (HFCS-55).”

3 tasters [5] = assay: Taste profile of Test Compound Na Salt with sucralose in pH 3.0 buffer (Example 7)
Procedure: The taste profile of the Test Compound Sweetener (Na Salt of the compound) was evaluated in combination with sweeteners—namely sucralose. These samples were evaluated in pH 3.0 buffer at 10 SE by 3 tasters. Samples were tasted in a blinded fashion using sip and spit methodology. The focus of the evaluation was to obtain an indication of the sweetness profile of the blends when compared to sucrose.
Materials and Methods. Potassium sorbate was dissolved into water. The remaining ingredients were added and mixed until fully dissolved. The samples were tasted using sip and spit method. The samples were then compared to each other and the HFCS-55 sweetness equivalence target (10 SE).

[6] = tested on: trained descriptive analysis (DA) panel; assay: Sensory evaluation of Test Compound/Reb M blends (sweetness quality and off-taste profile), 15 cm scale; settings: in water solution
[7] = 10 SE target, Test Compound Na Salt 1100 ppm, blend 550 ppm + 85 ppm Sucralose, Sucralose 170 ppm

SMILES: Cc1ccc2[nH]cc(C[C@@H](N)C(=O)O)c2c1 [Compound 5, (R)-2-amino-3-(5-methyl-1H-indol-3-yl)propanoic acid]
- concentration-response curve (sweetness intensity, gLMS) [1]: linear relationship
- Bitter Aftertaste (1 min) [2]: 0.2
- Sweet Aftertaste (1 min) [2]: 3.1
- Bitter Aftertaste (3 min) [2]: 0.1
- Sweet Aftertaste (3 min) [2]: 0.2
- Astringent [2]: 1.7
- Bitter [2]: 1.5
- Licorice [2]: 1.6
- Metallic [2]: 1.1
- Sweet AT (Appearance Time) [2]: 4.2
- Sweet Intensity (ns) [2]: 10.0
- Thickness [2]: 6.7
- mouthfeel (3 tasters [3]; blend 550 ppm + 6.49% HFCS-55): lower in mouthfeel
- sweetness and taste (3 tasters [3]; blend 550 ppm + 6.49% HFCS-55, HFCS-55 12.987%): fairly clean in taste and provides good upfront sweetness
- adaptation (3 tasters [4]; in combination with Reb A): helped reduce the adaptation commonly with Reb A
- adaptation (3 tasters [5]; in combination with sucralose): helped reduce the adaptation commonly with sucralose
- off-taste of the sweetener by itself [6]: minimal bitterness, astringency and bitter linger

SMILES: C=C1C[C@@]23CC[C@H]4[C@@](C)(CCC[C@@]4(C)C(=O)O[C@@H]4O[C@H](CO)[C@@H](O)[C@H](O)[C@H]4O)[C@@H]2CC[C@]1(O[C@@H]1O[C@H](CO)[C@@H](O)[C@H](O[C@@H]2O[C@H](CO)[C@@H](O)[C@H](O)[C@H]2O)[C@H]1O[C@@H]1O[C@H](CO)[C@@H](O)[C@H](O)[C@H]1O)C3 [Reb A, Rebaudioside A]
- sweetness and taste (3 tasters [4]; 8SE target, Test Compound Na Salt 880 ppm, blend 440 ppm + 275 ppm Reb A, Reb A 550 ppm): much less sweet than 8SE
- onset, decay and off notes (3 tasters [4]; Test Compound Na Salt 880 ppm, blend 440 ppm + 275 ppm Reb A, Reb A 550 ppm): plastic/floral/metallic taste to it with a bitter and astringent linger

SMILES: C=C1C[C@@]23CC[C@H]4[C@@](C)(CCC[C@@]4(C)C(=O)O[C@@H]4O[C@H](CO)[C@@H](O)[C@H](O[C@@H]5O[C@H](CO)[C@@H](O)[C@H](O)[C@H]5O)[C@H]4O[C@@H]4O[C@H](CO)[C@@H](O)[C@H](O)[C@H]4O)[C@@H]2CC[C@]1(O[C@@H]1O[C@H](CO)[C@@H](O)[C@H](O[C@@H]2O[C@H](CO)[C@@H](O)[C@H](O)[C@H]2O)[C@H]1O[C@@H]1O[C@H](CO)[C@@H](O)[C@H](O)[C@H]1O)C3 [Reb M, Rebaudioside M, reference compound]
- Bitter Aftertaste (1 min) [2]: 1.6
- Sweet Aftertaste (1 min) [2]: 5.1
- Bitter Aftertaste (3 min) [2]: 0.9
- Sweet Aftertaste (3 min) [2]: 1.8
- Astringent [2]: 3.1
- Bitter [2]: 4.0
- Licorice [2]: 3.4
- Metallic [2]: 1.7
- Sweet AT (Appearance Time) [2]: 6.8
- Sweet Intensity (ns) [2]: 10.0
- Thickness [2]: 3.5

SMILES: OC[C@H]1O[C@H](O[C@]2(CCl)O[C@H](CCl)[C@@H](O)[C@@H]2O)[C@H](O)[C@@H](O)[C@H]1Cl [Sucralose, sucralose]
- mouthfeel and aftertaste/linger (3 tasters [5]; [7]): Significant aftertaste/linger
- sweetness vs HFCS-55 target (3 tasters [5]; [7]): less sweet than HFCS (LOSE) with a delayed sweetness
